This note sets out measurements from PubChem BioAssay (NCI).

What all share (experiment): inhibition of tumour cell growth, NCI panel, 48 h
The test system of assay [1] is M14 melanoma.
The subject of assay [2] is PC-3 prostate.
The subject of assay [3] is CCRF-CEM leukemia.
Assay [4] relates to HCC-2998 colon.
The subject of assay [5] is RPMI-8226 leukemia.
Assay [6] deals with K-562 leukemia.
Assay [7] has as its system RXF 393 renal.
The subject of assay [8] is ACHN renal.
Assay [9] relates to BT-549 breast.
The subject of assay [10] is A549 NSCLC.

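Test compounds were applied to cells in 96-well plates for 48 hours at 5 doses. At the GI50, growth is halved. TGI marks complete inhibition of growth.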

Consider `Oc1cc(Cl)ccc1Cc1ccc(Cl)cc1O`, for which the GI50 in assay [1] was 13.5 µM; in assay [2] it was 6.23 µM; in assay [3], 15.8 µM; in assay [4], 14.6 µM; in [5], 6.01 µM; in assay [6] it was 5.69 µM. For the same compound, the GI50 in [7] was 12.8 µM; in assay [8], 10 µM; in assay [9] it was 4.22 µM; in assay [10], 14.7 µM. Besides, the TGI was 26.3 µM in assay [1]; 83 µM in [2]; > 100 µM in assay [3]; 27.7 µM in [4]; > 100 µM in [5]; > 100 µM in [6]. In addition, the TGI turned out to be 28.4 µM in assay [7], 31.2 µM in [8], 19.1 µM in assay [9] and 41.1 µM in [10].
As to `CCC(=O)c1ccc2c(c1)N(CCCN1CCN(CCO)CC1)c1ccccc1S2`, the GI50 in [1] is 2.22 µM; in assay [2], 11.5 µM; in assay [3] it was 9.67 µM; in assay [4], 11.8 µM; in assay [5], 8.82 µM; in assay [6] it was 3.24 µM. The GI50 is 12.2 µM in assay [7], 16.2 µM in assay [8], 14.9 µM in assay [9] and 16.2 µM in assay [10]. Also, the TGI in [1] is 4.63 µM; in assay [2] it was 25.2 µM; in [3] it was 27.9 µM; in [4], 26.1 µM; in assay [5], 27.6 µM; in assay [6], 9.83 µM. The TGI in assay [7] is 26.2 µM; in assay [8], 32 µM; in assay [9], 28.9 µM; in assay [10] it was 32.1 µM.
Turning to `CO/C(=N\N=C\c1cccc(C(F)(F)F)c1)c1ccncc1`, the TGI in assay [1] was 94.4 µM; in [2], > 100 µM; in assay [3], 84.1 µM; in [4] it was 22.5 µM; in assay [5], 81.9 µM; in assay [6], > 100 µM. The TGI is 33.2 µM in assay [7], > 100 µM in assay [8], 68 µM in assay [9] and > 100 µM in assay [10]. Also, the GI50 in assay [3] is 3.71 µM; in [5], 7.15 µM; in assay [6], 3.08 µM; in assay [8], 27.3 µM; in [9], 8.78 µM; in [10], 15.5 µM.
On to `COc1cc(-c2n/c(=C\c3c(O)[nH]c4ccccc34)cc3c2=Nc2ccccc2-3)cc(OC)c1OC`, for which the GI50 in [1] was 0.785 µM; in [2], 2.19 µM; in [3], 1.12 µM; in assay [4], 2.32 µM; in [5] it was 3.09 µM; in assay [6] it was 0.586 µM. Besides, the GI50 was 0.436 µM in assay [7], 1.11 µM in [8], 0.486 µM in assay [9] and 0.675 µM in assay [10]. The TGI in assay [1] was 4.26 µM; in assay [2] it was > 100 µM; in assay [3] it was > 100 µM; in assay [4] it was 6.48 µM; in assay [5], > 26.4 µM; in assay [6] it was > 100 µM. Further, the TGI is 5.34 µM in assay [7], > 100 µM in assay [8], 2.47 µM in assay [9] and > 100 µM in assay [10].
As to `O=[N+]([O-])/C=C/c1ccc([N+](=O)[O-])cc1`, the GI50 is 1.55 µM in [1]; 5.46 µM in assay [2]; 3.63 µM in assay [3]; 1.75 µM in assay [4]; 2.25 µM in [5]; 2.4 µM in [6]. Besides, the GI50 is 1.52 µM in [7], 2.08 µM in [8], 2.1 µM in assay [9] and 3.15 µM in assay [10]. In addition, the TGI in assay [1] worked out at 3.22 µM; in assay [2] it was 24.8 µM; in assay [3] it was 84.4 µM; in [4] it was 3.23 µM; in [5], 5.95 µM; in assay [6], 12.4 µM. Besides, the TGI is 2.98 µM in assay [7], 4.16 µM in assay [8], 4.02 µM in assay [9] and 13.1 µM in assay [10].
`Oc1ccc(CN(Cc2ccc(C(F)(F)F)cc2)Cc2ccc(O)c3ncccc23)c2cccnc12`: the GI50 is 0.0326 µM in assay [1]; < 0.0146 µM in assay [2]; 0.0314 µM in assay [3]; 0.0496 µM in assay [4]; 0.0278 µM in [5]; 0.0224 µM in assay [6]. Moreover, the GI50 was 0.0485 µM in assay [7], 0.0256 µM in assay [8], 0.0297 µM in assay [9] and 0.0349 µM in [10]. Besides, the TGI in assay [1] is 2.17 µM; in [2] it was > 100 µM; in assay [3] it was > 100 µM; in assay [4], > 100 µM; in [5], > 100 µM; in assay [6], > 100 µM. Besides, the TGI in assay [8], in [9] and in [10] was > 100 µM each time.
As for `CC1(C)Cc2c(Br)c(Br)c(Br)c(OCC(O)CN3CCOCC3)c2O1` (stereo not given), the GI50 in [1] is 17.9 µM; in assay [2] it was 7.93 µM; in [3], 10.2 µM; in [4] it was 14.1 µM; in assay [5] it was 3.82 µM; in assay [6], 3.1 µM. For the same compound, the GI50 in assay [7] is 3.69 µM; in assay [8], 15.1 µM; in [9], 10.5 µM; in [10] it was 12.9 µM. For the same compound, the TGI came out at 37.1 µM in assay [1]; 20.7 µM in assay [2]; 24.1 µM in assay [3]; 28.8 µM in assay [4]; 18.7 µM in assay [5]; 14.3 µM in assay [6]. Further, the TGI in assay [7] is 13 µM; in [8] it was 28.7 µM; in [9], 22.3 µM; in assay [10] it was 28.4 µM.
